Results as given in BigSolDB 2.1.

O=C1NC(=O)C2C3C=CC(C3)C12 (stereo not drawn)
solubility (mole fraction)
Conditions | 278.15 K | 283.15 K | 288.15 K | 293.15 K | 298.15 K | 303.15 K | 308.15 K | 313.15 K | 318.15 K | 323.15 K
in 1,4-dioxane | – | – | 0.0363 | 0.0402 | 0.0495 | 0.0576 | 0.0649 | 0.0738 | 0.0843 | 0.0962
in 2-ethoxyethanol | 0.019 | 0.0224 | 0.0255 | 0.0295 | 0.0336 | 0.0384 | 0.0442 | 0.0481 | 0.0551 | 0.0627
in DMF | 0.0637 | 0.0717 | 0.081 | 0.0915 | 0.107 | 0.116 | 0.129 | 0.145 | 0.159 | 0.177
in acetone | 0.0128 | 0.0146 | 0.0171 | 0.0196 | 0.0225 | 0.0255 | 0.029 | 0.0328 | 0.0369 | 0.0414
in ethanol | 0.00441 | 0.00512 | 0.00642 | 0.00789 | 0.00949 | 0.0115 | 0.0138 | 0.0165 | 0.0195 | 0.0233
in ethyl acetate | 0.00821 | 0.00971 | 0.0112 | 0.0128 | 0.0146 | 0.0171 | 0.0195 | 0.0223 | 0.0255 | 0.029
in isopropyl acetate | 0.0046 | 0.00565 | 0.00672 | 0.00781 | 0.00903 | 0.0105 | 0.0124 | 0.0143 | 0.0164 | 0.019
in methanol | 0.00626 | 0.00766 | 0.00855 | 0.0104 | 0.0127 | 0.0157 | 0.0182 | 0.0219 | 0.026 | 0.0308
in methyl acetate | 0.0113 | 0.0135 | 0.0159 | 0.0187 | 0.0223 | 0.0259 | 0.0303 | 0.0352 | 0.041 | 0.0474
in n-butyl acetate | 0.00431 | 0.00523 | 0.00617 | 0.00718 | 0.00869 | 0.0103 | 0.0117 | 0.0135 | 0.0156 | 0.0178
in n-propyl acetate | 0.00537 | 0.00631 | 0.00782 | 0.00907 | 0.0106 | 0.0124 | 0.0145 | 0.0168 | 0.0193 | 0.0221
